Results published in patent publication US9868726B2, “Pyridyl benzothiophenes as kinase inhibitors” (Allergan, Inc., priority 2014, dated 2018).

Columns and labels:
[1] = biological target: VEGFR2 (cytoplasmic domain KDR protein) (Homo sapiens (Human), UniProt P35968); test: VEGFR2 Kinase Assay (biochemical KDR kinase assay, ELISA); details: read-out: VEGFR2 Enzyme Assay (IC50 nM); 2.7 μM ATP
[2] = biological target: PDGFRβ (cytoplasmic domain PDGFR-b protein) (Homo sapiens (Human), UniProt P09619); test: PDGFRβ Kinase Assay (biochemical, ELISA); details: 36 μM ATP; read-out: PDGFRβ Enzyme Assay (IC50 nM)
PDGFRβ (cytoplasmic domain PDGFR-b protein), sequence (P09619 554-1106): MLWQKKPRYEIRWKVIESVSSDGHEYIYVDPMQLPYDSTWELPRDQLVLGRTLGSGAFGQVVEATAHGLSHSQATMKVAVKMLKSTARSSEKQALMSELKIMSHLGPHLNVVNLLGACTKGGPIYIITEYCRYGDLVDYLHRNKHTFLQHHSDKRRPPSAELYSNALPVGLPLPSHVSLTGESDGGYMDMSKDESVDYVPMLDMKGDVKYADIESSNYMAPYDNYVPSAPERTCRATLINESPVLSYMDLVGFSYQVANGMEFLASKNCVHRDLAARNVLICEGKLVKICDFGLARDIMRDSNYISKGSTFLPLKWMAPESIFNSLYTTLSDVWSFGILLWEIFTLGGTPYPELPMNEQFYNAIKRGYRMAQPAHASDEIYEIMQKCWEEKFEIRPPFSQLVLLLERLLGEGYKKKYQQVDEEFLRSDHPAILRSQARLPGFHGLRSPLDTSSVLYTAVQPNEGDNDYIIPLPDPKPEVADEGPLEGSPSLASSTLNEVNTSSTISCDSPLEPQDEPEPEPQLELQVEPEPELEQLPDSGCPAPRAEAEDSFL

[3] = biological target: recombinant human GST-PKR (Homo sapiens (Human), UniProt P19525); test: PKR KinaseGlo Assay; type: biochemical; details: 6.6 uM ATP; read-out: PKR KINASEGLO Enzyme Assay IC50
recombinant human GST-PKR, sequence (P19525 whole entry): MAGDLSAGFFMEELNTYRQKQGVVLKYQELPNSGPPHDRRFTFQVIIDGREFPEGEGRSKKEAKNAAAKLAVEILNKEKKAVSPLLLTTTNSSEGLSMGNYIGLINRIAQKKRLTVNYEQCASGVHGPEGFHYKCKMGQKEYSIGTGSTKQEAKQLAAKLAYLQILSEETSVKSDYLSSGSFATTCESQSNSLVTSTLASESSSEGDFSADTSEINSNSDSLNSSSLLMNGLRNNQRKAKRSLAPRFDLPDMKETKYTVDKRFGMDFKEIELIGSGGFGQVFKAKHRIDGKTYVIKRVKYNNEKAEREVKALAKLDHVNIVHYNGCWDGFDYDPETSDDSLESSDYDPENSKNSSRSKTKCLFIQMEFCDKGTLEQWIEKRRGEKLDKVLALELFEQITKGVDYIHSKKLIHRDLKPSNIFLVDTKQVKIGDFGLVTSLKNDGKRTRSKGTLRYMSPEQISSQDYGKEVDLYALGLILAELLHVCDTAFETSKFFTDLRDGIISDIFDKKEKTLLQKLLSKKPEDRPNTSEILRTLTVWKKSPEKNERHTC
Method: Commercially available recombinant human GST-PKR (SignalChem, Canada; 1.5 uM-2 uM stock) is diluted to 500 nM in assay buffer (20 mM Tris-HCl, pH 7.2, 10 mM KCl, 10 mM MgCl2, 10% glycerol). Preactivated PKR is dispensed to 384/96-well black plates at 3.125/12.5 uls/well using the liquid handler Janus. Appropriate dilutions of inhibitors are added to 384/96-well plate followed by 6.6 uM ATP (final) and incubated for 10 minutes at room temperature. The remaining ATP/well is determined by adding 6.25/25 uls/well Kinase-Glo assay mix (Promega) and luminescence is measured on EnVision luminescence plate reader (integration time, 0.2 sec; Perkin-Elmer, Massachusetts, USA). […] IC50 values are determined by plotting % activity versus inhibitor concentration. Curves are fitted using Activity base XLfit (IDBS, UK) using the formula— 4 Parameter Logistic Model fit=(A+((B−A)/(1+(10^((C−x)*D))))) inv=(C−(log(((B−A)/(y−A))−1)/D)) res=(y−fit)

VEGFR2 = VEGFR2 (Homo sapiens (Human), UniProt P35968); test: VEGFR2 Cellular Assay (FLIPR, VEGF induced intracellular calcium in HUVEC)
VEGFR2, sequence (P35968 20-1356): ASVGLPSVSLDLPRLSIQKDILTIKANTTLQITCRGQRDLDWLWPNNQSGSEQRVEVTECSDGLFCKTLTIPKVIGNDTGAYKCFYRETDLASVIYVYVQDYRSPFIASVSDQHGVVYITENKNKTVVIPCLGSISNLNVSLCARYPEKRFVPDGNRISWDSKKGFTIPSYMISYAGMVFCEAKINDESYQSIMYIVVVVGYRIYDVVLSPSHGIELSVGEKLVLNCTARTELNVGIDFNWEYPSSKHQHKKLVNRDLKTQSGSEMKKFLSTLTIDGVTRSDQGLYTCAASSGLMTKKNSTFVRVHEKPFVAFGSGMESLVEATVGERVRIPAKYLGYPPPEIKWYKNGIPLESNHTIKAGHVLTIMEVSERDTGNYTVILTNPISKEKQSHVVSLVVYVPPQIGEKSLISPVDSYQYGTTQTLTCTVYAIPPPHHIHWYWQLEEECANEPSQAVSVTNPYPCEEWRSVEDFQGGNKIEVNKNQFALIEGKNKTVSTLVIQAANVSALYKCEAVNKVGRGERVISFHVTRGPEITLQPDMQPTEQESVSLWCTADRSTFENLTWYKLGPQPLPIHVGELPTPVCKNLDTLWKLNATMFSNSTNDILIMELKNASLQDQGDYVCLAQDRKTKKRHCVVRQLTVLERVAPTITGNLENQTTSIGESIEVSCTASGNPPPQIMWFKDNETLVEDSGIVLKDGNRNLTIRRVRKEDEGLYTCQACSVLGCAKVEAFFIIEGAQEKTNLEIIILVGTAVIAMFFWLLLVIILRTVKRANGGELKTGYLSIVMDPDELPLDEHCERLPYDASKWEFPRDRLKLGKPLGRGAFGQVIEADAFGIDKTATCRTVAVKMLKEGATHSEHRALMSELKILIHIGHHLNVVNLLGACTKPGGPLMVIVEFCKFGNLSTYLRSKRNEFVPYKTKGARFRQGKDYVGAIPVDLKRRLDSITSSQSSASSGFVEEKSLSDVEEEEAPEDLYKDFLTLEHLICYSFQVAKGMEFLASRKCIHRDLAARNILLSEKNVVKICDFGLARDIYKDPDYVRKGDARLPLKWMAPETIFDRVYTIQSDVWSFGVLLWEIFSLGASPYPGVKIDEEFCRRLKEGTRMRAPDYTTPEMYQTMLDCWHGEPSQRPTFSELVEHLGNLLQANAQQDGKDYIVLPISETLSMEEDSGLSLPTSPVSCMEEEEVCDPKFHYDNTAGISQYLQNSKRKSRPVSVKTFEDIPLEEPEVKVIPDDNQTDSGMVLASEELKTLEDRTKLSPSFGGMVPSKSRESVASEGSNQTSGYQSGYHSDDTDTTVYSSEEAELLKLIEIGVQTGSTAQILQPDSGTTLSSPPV

PDGFRβ = PDGFRβ (Homo sapiens (Human), UniProt P09619); test: PDGFRβ Cellular Assay (FLIPR, PDGF-induced intracellular calcium in NHDF-Ad)
PDGFRβ, sequence (P09619 33-1106): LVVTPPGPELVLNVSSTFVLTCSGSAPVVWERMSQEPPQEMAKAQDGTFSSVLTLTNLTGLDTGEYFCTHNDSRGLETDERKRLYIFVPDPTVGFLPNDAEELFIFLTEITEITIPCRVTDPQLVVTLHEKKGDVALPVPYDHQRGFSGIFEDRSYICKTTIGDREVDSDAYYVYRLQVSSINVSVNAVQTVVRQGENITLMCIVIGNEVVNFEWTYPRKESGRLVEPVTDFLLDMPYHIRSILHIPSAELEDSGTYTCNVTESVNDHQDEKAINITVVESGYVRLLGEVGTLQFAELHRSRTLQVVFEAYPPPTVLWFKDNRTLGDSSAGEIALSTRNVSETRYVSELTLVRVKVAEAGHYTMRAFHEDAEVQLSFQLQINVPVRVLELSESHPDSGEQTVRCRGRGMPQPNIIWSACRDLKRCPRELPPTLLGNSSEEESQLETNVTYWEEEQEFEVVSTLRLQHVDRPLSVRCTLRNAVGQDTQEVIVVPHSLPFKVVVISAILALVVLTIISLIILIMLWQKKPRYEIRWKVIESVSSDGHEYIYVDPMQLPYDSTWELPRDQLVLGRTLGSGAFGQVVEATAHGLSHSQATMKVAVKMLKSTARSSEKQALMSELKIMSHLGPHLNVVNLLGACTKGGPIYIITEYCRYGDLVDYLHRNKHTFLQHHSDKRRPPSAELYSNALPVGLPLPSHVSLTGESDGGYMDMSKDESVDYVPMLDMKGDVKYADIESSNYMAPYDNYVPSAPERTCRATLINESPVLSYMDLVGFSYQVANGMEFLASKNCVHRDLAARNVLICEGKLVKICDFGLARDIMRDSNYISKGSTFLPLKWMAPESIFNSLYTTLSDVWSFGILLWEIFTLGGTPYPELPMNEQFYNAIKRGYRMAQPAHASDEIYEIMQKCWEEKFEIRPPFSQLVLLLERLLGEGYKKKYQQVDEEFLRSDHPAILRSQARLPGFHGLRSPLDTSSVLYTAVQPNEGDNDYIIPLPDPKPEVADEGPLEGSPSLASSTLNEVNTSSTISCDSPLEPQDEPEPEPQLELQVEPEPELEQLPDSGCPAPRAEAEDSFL

VEGFR2 (cytoplasmic domain KDR protein), sequence (P35968 786-1356): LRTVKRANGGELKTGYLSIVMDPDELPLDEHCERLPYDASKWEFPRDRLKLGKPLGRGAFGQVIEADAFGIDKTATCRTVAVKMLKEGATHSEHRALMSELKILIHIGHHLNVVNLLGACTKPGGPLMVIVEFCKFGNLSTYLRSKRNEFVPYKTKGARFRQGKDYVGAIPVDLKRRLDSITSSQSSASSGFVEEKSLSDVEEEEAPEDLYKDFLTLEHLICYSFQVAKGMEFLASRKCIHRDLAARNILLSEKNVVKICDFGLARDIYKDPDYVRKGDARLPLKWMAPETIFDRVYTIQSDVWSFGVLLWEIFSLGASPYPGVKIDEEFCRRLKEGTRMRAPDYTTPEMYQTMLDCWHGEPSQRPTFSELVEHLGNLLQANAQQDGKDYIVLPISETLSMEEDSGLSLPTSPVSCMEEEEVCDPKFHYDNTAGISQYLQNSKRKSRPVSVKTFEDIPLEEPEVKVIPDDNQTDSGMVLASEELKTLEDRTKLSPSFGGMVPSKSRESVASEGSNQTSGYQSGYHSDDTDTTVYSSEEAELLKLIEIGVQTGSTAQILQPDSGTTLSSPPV

| SMILES | IC50 [1] [nM] | IC50 [2] [nM] | IC50 [3] [µM] | IC50 (VEGFR2) [µM] | IC50 (PDGFRβ) [µM] |
| --- | --- | --- | --- | --- | --- |
| CS(C)(=O)=NC(=O)c1cnc(N)c(-c2cc3cc(NC(=O)Nc4ccc(Cl)c(C(F)(F)F)c4)ccc3s2)c1 [Example 5, 6-amino-5-{5-[({[4-chloro-3-(trifluoromethyl)phenyl]amino}carbonyl)amino]-1-benzothien-2-yl}-N-[dimethyl(oxido)-λ^4-sulfanylidene]nicotinamide] | 6 | 21 | 0.069 | 0.011 |  |
| COP(=O)(OC)c1cnc(N)c(-c2ccc(NC(=O)Nc3cccc(C(F)(F)F)c3)cc2)c1 [Example 64, dimethyl (6-amino-5-(4-(3-(3-(trifluoromethyl)phenyl)ureido)phenyl)pyridin-3-yl)phosphonate] |  |  |  |  | 0.066 |
| CS(C)(=O)=NC(=O)c1cnc(N)c(-c2cc3cc(NC(=O)Nc4cc(C(F)(F)F)ccc4F)ccc3s2)c1 [Example 6, 6-amino-N-[dimethyl(oxido)-λ^4-sulfanylidene]-5-{5-[({[2-fluoro-5-(trifluoromethyl)phenyl]amino}carbonyl)amino]-1-benzothien-2-yl}nicotinamide] | 6 | 27 | 0.167 | 0.005 |  |

Further compounds by falling IC50 [1], results first:

| IC50 [1] [nM] | IC50 [2] [nM] | IC50 [3] [µM] | IC50 (VEGFR2) [µM] | SMILES | IC50 (PDGFRβ) [µM] |
| --- | --- | --- | --- | --- | --- |
| 14 |  | 0.39 |  | CS(C)(=O)=NC(=O)c1cncc(-c2cc3cc(NC(=O)Nc4ccc(Cl)c(C(F)(F)F)c4)ccc3s2)c1 [Example 58, 5-{5-[({[4-chloro-3-(trifluoromethyl)phenyl]amino}carbonyl)amino]-1-benzothien-2-yl}-N-[dimethyl(oxido)-Δ^4-sulfanylidene]nicotinamide] |  |
| 7 |  | 0.551 |  | CS(C)(=O)=NC(=O)c1cncc(-c2cc3cc(NC(=O)Nc4cc(C(F)(F)F)ccc4F)ccc3s2)c1 [Example 57, N-[dimethyl(oxido)-λ^4-sulfanylidene]-5-{5-[({[2-fluoro-5-(trifluoromethyl)phenyl]amino}carbonyl)amino]-1-benzothien-2-yl}nicotinamide] |  |
